Source: article PMC9317670, “Temporal and Wash-Out Studies Identify Medicines for Malaria Venture Pathogen Box Compounds with Fast-Acting Activity against Both Trypanosoma cruzi and Trypanosoma brucei” (Microorganisms, 2022)
Like-named read-outs stand apart in the source and are kept apart here.

Tests used:
[1] = test system: T. cruzi Tulahuen strain parasites in 3T3 host cells; assay: T. cruzi 48 h image-based assay; assay type: cell-based, Trypanosoma cruzi
[2] = test system: T. cruzi Tulahuen strain parasites in 3T3 host cells; parameters: method as in PMID 28674055; settings: liquid stocks; ref [16]; read-out: IC50 T. cruzi in the previous studies; cited from earlier work
[3] = test system: T.b. brucei; parameters: method as in PMID 26258172; settings: ref [53]; read-out: IC50 T.b. brucei, previously reported; cited from earlier work
[4] = test system: T. cruzi; parameters: method as in PMID 25583723; settings: 96 h; ref [54]; read-out: IC50 T. cruzi following 96 h incubation; cited from earlier work
[5] = test system: T.b. brucei bloodstream 427 strain parasites; assay: T.b. brucei 72 h REDOX-based (resazurin) viability assay; assay type: cell-based, Trypanosoma brucei brucei; settings: for SI (T.b. brucei) HEK: selectivity index in relation to HEK293 cells; for SI (T.b. brucei) (HEP): selectivity index in relation to HEPG2 cells
[6] = test system: HEK293 cells; assay: HEK293 cytotoxicity assay; assay type: cell-based, human; settings: HEK293, 72 h; NA = not active; highest dose 79 µM unless given
[7] = test system: HEPG2 cells; assay: HEPG2 cytotoxicity assay; assay type: cell-based, human; settings: HEPG2, 72 h, NA = not active, highest dose 79 µM unless given
[8] = test system: T. cruzi; assay: T. cruzi temporal image-based assay, 24 h exposure; assay type: cell-based, Trypanosoma cruzi; settings: for IC50: NA = not active at given concentration, read-out: IC50 24 h T. cruzi
[9] = test system: T. cruzi; assay: T. cruzi compound wash off assay (48 h with compound, wash off, 72 h without); assay type: cell-based, Trypanosoma cruzi; settings: T. cruzi; for Fold Change of IC50, wash off vs 48 h: IC50 from 48 h incubation to IC50 following wash off and further 72 h; for Emax / IC50: 48 h incubation, wash off, further 72 h; for IC50: read-out: IC50 Wash Off
[10] = test system: T.b. brucei; assay: T.b. brucei temporal viability (time-kill) assay, 24 h, PrestoBlue; assay type: cell-based, Trypanosoma brucei brucei; settings: for Emax: read-out: Emax 24 h T.b. brucei (converted); for IC50: read-out: IC50 24 h T.b. brucei
Experimental: Time-kill assays was undertaken as previously described, using the REDOX reagent PrestoBlue® [24]. […] Control compounds were added at the same concentrations at outlined for the resazurin-based assays.

[11] = test system: T.b. brucei; assay: T.b. brucei temporal viability (time-kill) assay, 48 h, PrestoBlue; assay type: cell-based, Trypanosoma brucei brucei; settings: for Emax: read-out: Emax 48 h T.b. brucei (converted); for IC50: read-out: IC50 48 h T.b. brucei
[12] = test system: T.b. rhodesiense STIB900; assay: T.b. rhodesiense STIB900 assay, 72 h; assay type: cell-based; settings: Trypanosoma brucei, read-out: IC50 T. bR (T.b. rhodesiense)
[13] = test system: T.b. gambiense STIB930; assay: T.b. gambiense STIB930 assay, 72 h; assay type: cell-based; settings: Trypanosoma brucei, unit inferred, read-out: IC50 T. Bg STIB930 (T.b. gambiense)
[14] = target: T. cruzi recombinant CYP51 (TcCYP51) (Trypanosoma cruzi, UniProt Q7Z1V1); assay: biochemical
Experimental: The inhibitory properties of compounds against T. cruzi recombinant CYP51 (TcCYP51) was determined using an in vitro assay as previously described [33, 41]. Compounds which inhibited T. cruzi in an image-based assay were tested against TcCYP51 in log concentrations (100, 33, 10, 3.3, 1.0, 0.33, 0.1 and 0 µM), with one replicate per dose, as previously described [41]. The control compound posaconazole was incubated at the same concentrations as the test compounds, over two replicates.
Of the fast-acting compounds, if there was more than one compound with activity against T. cruzi, one representative compound from each chemical class was selected. […] Slow-acting compounds were also tested for activity against TcCYP51. The criteria defining a compound with TcCYP51 activity required that the IC50 value was within a log difference to posaconazole, as previously reported [33].

[15] = test system: T. cruzi and T.b. brucei; assay: Speed of action and cidality classification from temporal and wash off assays; assay type: cell-based, Trypanosoma cruzi, Trypanosoma brucei brucei; settings: for Speed of Action (FA/SA): TC = T. cruzi, TBB = T.b. brucei; for Speed of Action (Table 5): prioritised compounds, Fast/Slow
[16] = in vivo, species not stated; ref [10]; cited from earlier work
[17] = test system: CYP1A2; parameters: method as in earlier work; settings: Pathogen Box in vitro DMPK data; ref [10]; cited from earlier work
[18] = control drugs; ref DrugBank; cited from earlier work
[19] = ref [8]; cited from earlier work
[20] = test system: T. cruzi; parameters: method as in PMID 29016289; settings: treated for 40 days; ref [4]; cited from earlier work
[21] = test system: bovine peripheral blood mononuclear cells (PBMCs); parameters: method as in PMID 30771616; settings: 24 h incubation; ref [55]; read-out: IC50 against bovine PBMCs; cited from earlier work
[22] = Trypanosoma cruzi, TULAHUEN, 48 h; read-out: Emax % (T. cruzi) (converted)
[23] = Trypanosoma cruzi, TULAHUEN, 48 h; read-out: IC50 (T. cruzi)
[24] = selectivity index in relation to 3T3 host cells; highest dose 3T3 73 µM
[25] = selectivity index in relation to HEK293 cells
[26] = selectivity index in relation to HEPG2 cells

Chain of T. cruzi recombinant CYP51 (TcCYP51) (Q7Z1V1 whole entry): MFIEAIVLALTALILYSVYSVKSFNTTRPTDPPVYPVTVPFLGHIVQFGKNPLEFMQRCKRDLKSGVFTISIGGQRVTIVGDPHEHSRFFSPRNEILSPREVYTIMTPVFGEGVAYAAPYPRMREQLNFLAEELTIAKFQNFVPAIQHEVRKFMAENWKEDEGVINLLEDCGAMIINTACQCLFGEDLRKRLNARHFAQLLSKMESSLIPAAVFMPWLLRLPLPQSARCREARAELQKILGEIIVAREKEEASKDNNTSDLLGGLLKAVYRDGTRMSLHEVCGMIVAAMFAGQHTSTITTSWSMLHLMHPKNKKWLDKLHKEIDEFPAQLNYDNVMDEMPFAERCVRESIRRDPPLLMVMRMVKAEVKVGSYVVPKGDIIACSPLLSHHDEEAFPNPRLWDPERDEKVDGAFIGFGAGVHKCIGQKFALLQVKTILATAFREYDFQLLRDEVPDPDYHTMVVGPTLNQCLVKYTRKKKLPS

Row | Structure (SMILES) | Emax ([5]; Trypanosoma brucei, 72 h) | IC50 ([5]; Trypanosoma brucei, 72 h) | SI (T.b. brucei) HEK [5] | SI (T.b. brucei) (HEP) [5] | Emax [1, 22] | IC50 [1, 23] | SI (T. cruzi) 3T3 [1, 24] | SI (T. cruzi) HEK [1, 25] | SI (T. cruzi) (HEP) [1, 26] | Emax ([8]; Trypanosoma cruzi) | IC50 ([8]; Trypanosoma cruzi) | Fold Change of IC50, wash off vs 48 h [9] | Emax ([9]; Trypanosoma cruzi) | IC50 ([9]; Trypanosoma cruzi) | Emax ([10]; Trypanosoma brucei) | IC50 ([10]; Trypanosoma brucei) | Emax ([11]; Trypanosoma brucei) | IC50 ([11]; Trypanosoma brucei) | Speed of Action (FA/SA) [15] | Speed of Action (Table 5) [15] | also measured
1 | CC(C)=CCC/C(C)=C/CNCCNC1C2CC3CC(C2)CC1C3 (stereo not drawn) [MMV687273] | – | – | – | – | – | – | – | – | – | – | – | – | – | – | – | – | – | – | – | – | IC50 ([1]; Trypanosoma cruzi, TULAHUEN, 48 h, read-out: IC50 (T. cruzi)): 13000 nM; IC50 [2]: 5.4 µM; IC50 [3]: 5 µM; IC50 [4]: 500 to 1000 nM
2 | Cc1ccc(S(=O)(=O)Nc2ccc(CN3CCN(C(=O)c4cccc(C#N)c4)CC3)cc2)cc1 [MMV 689028] | 99% | 120 ± 30 nM | >658 (>658) | >658 (>658) | 100% | 700 ± 130 nM | >104 | >113 (>113) | >113 (>113) | 91% | 1100 ± 430 nM | 0.86 fold | 99% | 390 ± 20 nM | 78% | 720 ± 380 nM | 99% | 110 ± 3.2 nM | FA (Fast-acting (FA) = IC50 value can be determined following 24 h incubation, <10-fold difference in the IC50 value from 24 to 72 h) | Fast | IC50 HEK [6]: no activity; IC50 (HEP) [7]: no activity; IC50 ([12]; STIB900, 72 h, unit inferred): 280 ± 11 nM; IC50 [13]: 48 ± 1.1 nM; Inhibition of TcCYP51 (in words) ([14]; criterion: IC50 within a log difference to posaconazole): nor exhibited TcCYP51 activity; Half-life [16]: 6.8 h; CYP1A2 induction [17]: induced CYP1A2 activity
3 | Nc1nc(N)nc(Nc2ccc([As]3SCC(CO)S3)cc2)n1 (stereo not drawn) [Melarsoprol, reference compound] | – | – | – | – | – | – | – | – | – | – | – | – | – | – | – | – | – | – | – | – | IC50 ([12]; 72 h): 15 ± 4 nM; LogP [18]: 1.3; Fatality among patients in which encephalopathy develops [19]: 50%; Post-treatment reactive encephalopathy, share of all treated cases [19]: 5–10%
4 | COc1ccc(S(=O)(=O)Nc2ccc(CN3CCN(C(=O)c4cccc(C#N)c4)CC3)cc2)cc1 [MMV 689029] | 99% | 420 ± 53 nM | >188 (>188) | >188 (>188) | 100% | 1200 ± 67 nM | >61 | >66 (>66) | >66 (>66) | 90% | 3700 ± 260 nM | 0.73 fold | 98% | 880 ± 56 nM | 89% | 980 ± 340 nM | 100% | 400 ± 23 nM | FA (Fast-acting (FA) = IC50 value can be determined following 24 h incubation, <10-fold difference in the IC50 value from 24 to 72 h) | Fast | IC50 ([12]; STIB900, 72 h, unit inferred): 630 ± 110 nM; IC50 [13]: 400 ± 120 nM; IC50 ([14]; top concentration 100 µM): > 100 µM; Half-life [16]: 2.4 h; CYP1A2 induction [17]: induced CYP1A2 activity
5 | CC1(C)OB(O)c2cc(NC(=O)c3ccc(F)cc3C(F)(F)F)ccc21 [SCYX-7158] | – | – | – | – | – | – | – | – | – | – | – | – | – | – | – | – | – | – | – | – | Cure of mice infected with T. cruzi [20]: 100%
6 | O=C(Nc1ccc(F)c(-c2nc3ncc(-c4ccccc4)cc3[nH]2)c1)N1CCCC1 [MMV 688372] | – | – | – | – | – | – | – | – | – | – | – | – | – | – | – | – | – | – | SA (TC) | Slow | Emax % (T.b. brucei) ([5]; 72 h): 99%; IC50 ([5]; 72 h): 14 ± 2.4 nM; Emax % (T. cruzi) ([1]; 48 h): 99%; Emax % (T. cruzi) ([1]; 48 h; listed as MMV688372): > 95%; IC50 ([1]; 48 h; read-out: IC50 (T. cruzi)): 130 ± 9.7 nM; IC50 [6]: 1800 ± 50.2 nM; IC50 ([7]; read-out: IC50 (HEP) (converted)): 3.6 µM; Emax 24 h T. cruzi [8]: 75%; IC50 [8]: 1600 ± 64 nM; IC50 [9]: 130 ± 2.9 nM; Emax 24 h T.b. brucei [10]: 83%; IC50 [10]: 34 ± 2 nM; Emax 48 h T.b. brucei [11]: 100%; IC50 [11]: 13 ± 0.32 nM; IC50 [21]: 5.3 µM
